Test results published in US20250205158A1, “BIODEGRADABLE LIPIDS AND FORMULATIONS FOR DELIVERY OF MRNA” (Massachusetts Institute of Technology, priority 2023, published 2025).
“Also recorded” adds a separate entry of the source. Read-outs that look alike come from different tables or passages of the source.

Legend:
PCSK9 gene = assay: CRISPR-Cas9 gene editing with mRNA LNPs; format: in vivo; details: dose of 3 mg/kg
Method: The ability of AMG1541 mRNA LNPs to induce CRISPR-Cas9 gene editing was also evaluated (FIGS. 9A-9D).

TNS assay of LNP pKa = format: physicochemical
Method: Structural features of AMG lipids that facilitate mRNA delivery. The factors contributing to lipid potency were evaluated. The ionization properties of AMG1541 LNPs were investigated using a previously established 6-(p-toluidino)-2-napthalenesulfonic acid (TNS) assay.^22 The pKa of AMG LNPs showing higher in vivo mRNA transfection than SM-102 ranged between pH 6.4-6.7. […] In addition to endosomal buffering, it is hypothesized that the protonated ionizable lipids within the acidic endosome bind with anionic phospholipids within the endosomal membrane, destabilizing the membrane's bilayer and promoting endosomal pore formation.^17,52 The membrane fusion properties of the ionizable lipids was evaluated via ^31P NMR. When bilayer forming DPPS vesicles were mixed with equimolar AMG lipid under acidic conditions, a bilayer to hexagonal phase transition was observed, indicating their membrane-destabilizing nature (FIG. 15D).

mice [1] = format: in vivo, BALB/cJ and C57B1/6J mice; details: HA mRNA, dose=1 μg, day 35
BALB/c mice = details: spike mRNA LNPs on day 0 and day 21, serum day 35
Method: Briefly, 6-8 week old BALB/c mice were vaccinated with 1 g of mRNA LNPs on day 0 and on day 21, and serum was collected on day 35 to characterize the antibody response to vaccination.
Immunization studies. […] All LNPs were injected IM in the quadricep with an injection volume of 50 μL with the doses specified in the main text. All vaccination experiments followed a prime-boost dosing regimen with doses given on day 0 and day 21. On day 35, mice were sacrificed, and blood was collected via cardiac puncture and their spleens were collected for further characterization.
Binding antibody ELISAs. […] Plates were coated overnight at 4° C. by adding 100 μL of a 1 μg/mL antigen solution in 100 mM carbonate buffer, pH 9.6 to each well. The coated plates were then washed with ELISA wash buffer (Biolegend) and blocked for 1 hr. at room temperature (RT) with 150 μL of 1% BSA in PBS. The plate was then washed again, and 100 μL of serially diluted serum samples were then added to the plate and incubated at RT for 1 hr. Next, the plate was washed and the secondary goat anti-mouse IgG, HRP antibody (ThermoFisher) was diluted 1:3,000. 100 μL of this solution added to each well an incubated at RT for 1 hr. After incubation, the plate was washed and 100 μL of TMB chromogen solution (ThermoFisher) was added to each well and incubated for 30 mins. Finally, the HRP reaction was stopped by the addition of 100 μL of 0.5 M H2SO4. The absorbance of each well was immediately read at 450 nm with 600 nm as a reference using an Infinite M200 Pro (Tecan) plate reader. The resultant data were then fit with a 4-PL sigmodal curve and the endpoint titers were taken as the point at which this curve crossed four times the absorbance of the blank wells.

mice [2] = system: mice
Method: Evaluation of the LNPs via intramuscular injection. The in vivo potency of the ionizable lipids was screened through intramuscular injection of LNPs loaded with mRNA encoding firefly luciferase protein. These LNPs were formulated with a molar composition of (35:16:46.5:2.5) using one of the synthesized ionizable lipids, DOPE as a helper lipid, cholesterol, and DMPE-PEG respectively. mRNA-loaded LNPs were intramuscularly administered in mice at a dose of 1 μg, and expression of luciferase protein was monitored at 6 hours via IVIS bioluminescent imaging (FIG. 3). […] Without wishing to be bound by theory, increased levels of protein expression may enhance the response to vaccination.
In Vitro and In Vivo Screening of AMG Lipid Library. Following synthesis, the mRNA delivery efficacy of the AMG lipids was evaluated through both in vitro and in vivo screens. To screen the first generation of AMG lipids (FIGS. 11B and 11C), firefly luciferase (FLuc) mRNA was encapsulated into LNPs using a previously reported formulation containing ionizable lipid, 1,2-dioleoyl-sn-glycero-3-phosphoethanolamine (DOPE), cholesterol, and 1,2-dimyristoyl-rac-glycero-3-methoxypolyethylene glycol-2000 (DMG-PEG).^19 C2C12 myoblast cells were treated with these LNPs and FLuc expression was evaluated at 24 hrs. (FIG. 16). […] Each of these batches was then injected IM into the quadriceps of mice, and expression was characterized via IVIS imaging (Screen 1, FIG. 11E).
AMG lipids for enhanced mRNA delivery and improved tolerability. A rational design approach was used to further vary the ionizable lipid structure to enhance the mRNA delivery and immunogenicity. […] The lipid tail structure was varied to promote efficient LNP self-assembly while simultaneously promoting endosomal membrane disruption.^18 Monounsaturated (G41-G44) or fully saturated (GC12-GC18) lipid tails were developed. […] Without wishing to be bound by any particular theory, tail length may impact membrane fusion and endosomal escape.^10,11
Next, the headgroup was further modified to further improve delivery. Headgroups play a multifunctional role including enhancing LNP-mRNA interactions, promoting membrane-LNP fusion and endosomal escape which all contribute to mRNA delivery.^23 A series of similar aza-crown ethers were used to further investigate structure-activity relationship and enhance mRNA delivery. These headgroups featured between three and eight nitrogens linked by varying length of methylene chains. Each of these headgroups were reacted with tail G41 to synthesize a next generation of AMG lipids, which were then formulated with FLuc mRNA and evaluated for mRNA delivery following IM administration in mice (FIG. 12B).

mice [3] = assay: tdTomato mRNA LNP expression in muscle and local draining lymph node (flow cytometry, IHC)
mice [4] = assay: hEPO mRNA LNP protein production after intravenous administration; format: in vivo
liver = assay: fLuc mRNA LNP protein expression after intravenous injection; format: in vivo; details: 0.25 mg/kg dose, 6 hrs.
Method: Evaluation of the LNPs via intravenous injection. The lipids were initially evaluated for intravenous protein expression by administration of a 0.25 mg/kg dose […] of fLuc mRNA LNPs.

[5] = system: Lentiviruses pseudotyped with the B.1.617.2 spike protein; format: cell-based; details: 293T-ACE2 cells, GFP reporter
[6] = muscle, female BALB/cJ mice, IM
[7] = intravenous delivery of mRNA to the liver (FIG. 18), EPO in blood 6 hours

With CCCCCC/C=C\CCCC(=O)OCC(O)CN1CCN(CC(O)COC(=O)CCC/C=C\CCCCCC)CCN(CC(O)COC(=O)CCC/C=C\CCCCCC)CCN(CC(O)COC(=O)CCC/C=C\CCCCCC)CCN(CC(O)COC(=O)CCC/C=C\CCCCCC)CCN(CC(O)COC(=O)CCC/C=C\CCCCCC)CC1 (stereo not shown) [AMG1541] the “serum PCSK9 levels” value (PCSK9 gene) was “significant reduction in serum PCSK9 levels”, the “LNP pKa” value (TNS assay of LNP pKa) was ~6.5 and the “fold higher binding antibody endpoint titers than SM-102” value (mice [1]; female BALB/cJ mice) was 6.8 fold. The “fold higher binding antibody titers than SM-102” value (mice [1]; female C57B1/6J mice) was 5.8 fold, the “fold higher binding antibody endpoint titers than SM-102” value (mice [1]; male BALB/cJ mice) was 15.8 fold and the “antibody titers after vaccination” value (BALB/c mice) was “high antibody titers; also recorded: highest antibody titers”. For the same compound, the “fold higher expression compared to AMG104” value (mice [2]; IM, 1 μg, 6 hours) was 4.5 fold, the “fold higher in vivo mRNA transfection compared to SM-102” value (mice [2]; IM, 1 μg, 6 hours) was 3.5 fold and the “fold improvement in expression over cKK-E12” value (mice [2]; IM, 1 μg, 6 hours) was 1.7 fold. The “potency in intramuscular administration of mRNA compared to SM-102 and ALC-0315” value (mice [2]; mouse, in vivo) was “equal or higher potency”, the “times higher in vivo mRNA delivery compared to FDA-approved counterparts” value (mice [2]; mouse, in vivo) was “approximately three” and the “expression in muscle fibers (IHC)” value (mice [3]; after IM administration) was “tdTomato was expressed in the muscle fibers”. The “protein expression in the LDLN relative to SM-102” value (mice [3]; female BALB/cJ mice, IM) was “significantly higher protein expression in APCs”, the “fold higher tdTomato expression in DCs than SM-102” value (mice [3]; [6]) was 3.8 fold and the “fold higher tdTomato expression in monocytes than SM-102” value (mice [3]; [6]) was 22 fold. For the same compound, the “hEPO expression profile in the liver, comparable to MD-1” value (mice [4]; administered intravenously) was “excellent hEPO expression profile”, the “hEPO protein expression in liver” value (mice [4]; dose range of 0.25-1 mg/kg) was “consistent levels of protein expression” and the “fold higher protein expression than Lipid 5” value (mice [4]; hEPO mRNA, 1 mg/kg dose) was 3-4 fold. For the same compound, the hEPO protein expression (mice [4]; higher doses beyond 2 mg/kg) was “reduced protein expression”, the “expression relative to cKK-E12” value (mice [4]; intravenous delivery of mRNA to the liver (FIG. 18)) was “comparable expression to cKK-E12” and the “fold higher expression than LP-01” value (mice [4]; [7]) was ~5 fold. The “fold higher expression than Lipid 5” value (mice [4]; [7]) was ~3 fold, the “hEPO production in liver, repeat dosing” value (mice [4]; repeat dosing over 3 weeks at 0.05-1 mg/kg) was “consistent hEPO production” and the “protein expression after intravenous fLuc mRNA LNPs” value (liver) was “comparable levels of protein expression to lipid MD-1”. The “fold higher infection inhibition IC50 than AMG1041” value [5] was “approximately 2 fold”.
